TGI and GI50 data for four compounds are collected here from PubChem BioAssay (NCI).

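1) Cells in 96-well plates. 2) Compound, 48 h, 5 concentrations. 3) Linear interpolation between surrounding doses. 4) Unreached endpoint = highest concentration. At the GI50, growth is halved. At the TGI there is no net growth.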

Test systems include T-47D breast; XF 498 CNS; P388 leukemia; DMS 273 small cell lung.
Common to all, as to experiment: NCI tumour cell line growth inhibition, 48 h

With `N#Cc1c(NC(=S)NC(=O)c2ccccc2)nc2c(c1-c1ccccc1)CCC2`, the TGI in the assay with T-47D breast was more than 100 µM.

As for `CSC1=Nc2ccccc2N(C)c2c1c(-c1ccccc1)nn2C`, the TGI in the assay with T-47D breast came out at 49.7 µM.

Consider `O=[Se]([O-])c1ccccc1.O=[Se]([O-])c1ccccc1.[OH3+].[OH3+].[Pt+2]`, for which the values for the GI50 in the assay with XF 498 CNS, in the assay with P388 leukemia and in the assay on DMS 273 small cell lung were 7.72 µM, 1.84 µM and 14.6 µM, respectively. Besides, the TGI in the assay on XF 498 CNS stood at 26.2 µM; with P388 leukemia, 5.67 µM; with DMS 273 small cell lung it was 36 µM.

As to `COC1OC(=O)[C@H]2O[N+]([O-])=C(C)[C@@H]12` (stereo not given in full), the TGI with XF 498 CNS and in the assay on P388 leukemia was more than 100 µM in each case.
